Results on 4 compounds are retold here after PubChem BioAssay AID1963975 (Molecular Pharmacology Branch, DTP, NCI, 2024).

In the assay the test system is 624824-186-R-J2-PDC multicell spheroids, viability. Kind of assay: Anticancer human tumor 624824-186-R-J2-PDC patient-derived colon adenocarcinoma cell line growth inhibition [PI3K]. Particulars: for viability, T/C: stronger effect = lower value. The source says:
Combinatorial screen of targeted agents with the PI3K inhibitors inavolisib, alpelisib, duvelisib, and copanlisib in multi-cell type tumor spheroids
A high-throughput screen of multi-cell type tumor spheroids was designed to identify active combinations of targeted small molecules and PI3K pathway inhibitors. Complex spheroids include a stromal component modeled by human endothelial cells (HUVEC) and fibroblasts modeled by human mesenchymal stem cells (MSCs). The concentration ranges selected for each drug and investigational agent were based upon clinically achievable concentrations if the clinical Cmax of the agent was known.
Compounds. The drugs and investigational agents: inavolisib (NSC800729), alpelisib (NSC765974), duvelisib (NSC772469), copanlisib (NSC816437), ipatasertib (NSC767898), afuresertib (NSC778305), talazoparib (NSC767125), sapanisertib (NSC764658), selumetinib (NSC741078), tovorafenib (DAY101, NSC766906), vemurafenib (NSC761431), ravoxertinib (NSC781343), sotorasib (NSC818433), MRTX1133 (NSC 836407), abemaciclib (NSC 768073), palbociclib (NSC758247), venetoclax (NSC 766270), SY5609 (NSC837396), enzalutamide (NSC755605), and darolutamide (NSC825331), were obtained from the National Cancer Institute (NCI) Developmental Therapeutics Program Chemical Repository. The FDA-approved anticancer drug set is available from the NCI Developmental Therapeutics Program. […] The stock solutions were prepared in dimethyl sulfoxide (DMSO, Sigma-Aldrich, St. Louis, MO, cat. D2650) at 800-fold the tested concentration and stored at -70 degrees C prior to their use. All drugs and investigational agents were tested over a range starting from a high concentration at or near the clinical Cmax and decreasing in half-log increments. If the clinical Cmax for an agent had not been determined, the highest concentration tested was 10 microM.
Cell Culture. All cells were maintained in an incubator at 37 degrees C and 5% CO2 with 95% humidity. The PDC lines were cultured according to standard operating procedures established by the NCI PDMR (https://pdmr.cancer.gov/sops/default.htm). All PDCs were thawed and cultured in Matrigel-coated flasks prepared with a working solution of 1X Ham's F-12 nutrient mix, without supplementation (Invitrogen, Waltham, MA, cat. 11765054), 100 U/mL penicillin-streptomycin (Invitrogen, cat. 15140122), and 2.5% Matrigel (Corning Inc., Corning, NY, cat. 354248) for the first three passages. The 354836-022-R-J1-PDC, 475296-252-R-J1-PDC, and 997726-040-R-J2-PDC lines were cultured in 6A media, which includes advanced DMEM/F-12 (Thermo Fisher Scientific, cat. 12634028), 10 mM HEPES (Thermo Fisher Scientific, cat. 15630080), 1X GlutaMAX supplement (Thermo Fisher Scientific, cat. 35050061), 0.1 mg/mL primocin (InvivoGen, San Diego, CA, cat. ant-pm-2), 10% defined fetal bovine serum, heat inactivated (HyClone Laboratories Inc., Logan, UT, cat. SH30070.03HI), 50% L-WRN conditioned media (ATCC, cat. CRL-3276), 1.25 mM N-Acetyl-L-cysteine (Sigma-Aldrich, cat. A9165), 10 mM nicotinamide (Sigma-Aldrich, cat. N0636), 1X B-27 supplement (Thermo Fisher Scientific, cat. 17504044), 1X N-2 supplement (Thermo Fisher Scientific, cat. 17502048), and 10 microM Y-27632 dihydrochloride (Tocris Bioscience, Bristol, United Kingdom, cat. 1254). The 624824-186-R-J2-PDC line was cultured in 6C/Colon 1B media, which includes all 6A media components plus 50 ng/mL human EGF recombinant protein (Thermo Fisher Scientific, cat. PHG0311). […]

Setting [1] is: curve of first compound, second compound 0.00316 µM.
Where [2] appears, read: curve of first compound, second compound 0.01 µM.
The mark [3] stands for this setting: curve of first compound, second compound 0.0316 µM.
Setting [4] is: curve of first compound, second compound 0.1 µM.
[5] abbreviates: curve of first compound, second compound 0.316 µM.
[6] abbreviates: curve of first compound, second compound 1 µM.
Where [7] appears, read: second compound 0.00316 µM, first compound 0.0316 µM.
The mark [8] stands for this setting: second compound 0.00316 µM, first compound 0.1 µM.
Where [9] appears, read: second compound 0.00316 µM, first compound 0.316 µM.
Where [10] appears, read: second compound 0.00316 µM, first compound 1 µM.
Where [11] appears, read: second compound 0.00316 µM, first compound 3.16 µM.
The mark [12] stands for this setting: second compound 0.00316 µM, first compound 10 µM.
Setting [13] is: second compound 0.01 µM, first compound 0.0316 µM.
Setting [14] is: second compound 0.01 µM, first compound 0.1 µM.
The mark [15] stands for this setting: second compound 0.01 µM, first compound 0.316 µM.
Setting [16] is: second compound 0.01 µM, first compound 1 µM.
Where [17] appears, read: second compound 0.01 µM, first compound 3.16 µM.
Where [18] appears, read: second compound 0.01 µM, first compound 10 µM.
The mark [19] stands for this setting: second compound 0.0316 µM, first compound 0.0316 µM.
[20] abbreviates: second compound 0.0316 µM, first compound 0.1 µM.
The mark [21] stands for this setting: second compound 0.0316 µM, first compound 0.316 µM.
Setting [22] is: second compound 0.0316 µM, first compound 1 µM.
Where [23] appears, read: second compound 0.0316 µM, first compound 3.16 µM.
[24] abbreviates: second compound 0.0316 µM, first compound 10 µM.
[25] abbreviates: second compound 0.1 µM, first compound 0.0316 µM.
Setting [26] is: second compound 0.1 µM, first compound 0.1 µM.
[27] abbreviates: second compound 0.1 µM, first compound 0.316 µM.
[28] abbreviates: second compound 0.1 µM, first compound 1 µM.
Where [29] appears, read: second compound 0.1 µM, first compound 3.16 µM.
The mark [30] stands for this setting: second compound 0.1 µM, first compound 10 µM.
Where [31] appears, read: second compound 0.316 µM, first compound 0.0316 µM.
Where [32] appears, read: second compound 0.316 µM, first compound 0.1 µM.
Setting [33] is: second compound 0.316 µM, first compound 0.316 µM.
The mark [34] stands for this setting: second compound 0.316 µM, first compound 1 µM.
The mark [35] stands for this setting: second compound 0.316 µM, first compound 3.16 µM.
Where [36] appears, read: second compound 0.316 µM, first compound 10 µM.
[37] abbreviates: second compound 1 µM, first compound 0.0316 µM.
Setting [38] is: second compound 1 µM, first compound 0.1 µM.
[39] abbreviates: second compound 1 µM, first compound 0.316 µM.
[40] abbreviates: second compound 1 µM, first compound 1 µM.
Where [41] appears, read: second compound 1 µM, first compound 3.16 µM.
Setting [42] is: second compound 1 µM, first compound 10 µM.

pIC50: −log10 of the molar value.
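Also: spheroids exposed to agents for 7 days before viability read.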

One may read the pIC50 as the IC50 on a negative log10 scale, so that one unit is a factor of ten. As a reminder, the viability, T/C is the ratio of treated to control. Take `CC1(C)CCC(CN2CCN(c3ccc(C(=O)NS(=O)(=O)c4ccc(NCC5CCOCC5)c([N+](=O)[O-])c4)c(Oc4cnc5[nH]ccc5c4)c3)CC2)=C(c2ccc(Cl)cc2)C1` + COc1c(OCCCN2CCOCC2)ccc2c3n(c(=NC(=O)c4cnc(N)nc4)nc12)CCN3: the pIC50 by setting is: under setting [1], < 5.00; under setting [2], < 5.00; under setting [3], < 5.00; under setting [4], 5.17; under setting [5], 5.33; under setting [6], 5.33. Further, the viability, T/C by setting is: under setting [7], 78.7%; under setting [8], 82.4%; under setting [9], 81.6%; under setting [10], 98%; under setting [11], 70.5%; under setting [12], 61%. Further, the viability, T/C under setting [13] was 99%; the viability, T/C under setting [14] was 83.5%; the viability, T/C under setting [15] is 83.1%; the viability, T/C under setting [16] was 94.9%; the viability, T/C under setting [17] is 78.2%; the viability, T/C under setting [18] is 57.5%. Besides, the viability, T/C is 84.3% under setting [19]; 90.5% under setting [20]; 82.6% under setting [21]; 90.7% under setting [22]; 78.7% under setting [23]; 50.2% under setting [24]. The viability, T/C was 69% under setting [25]; 76.8% under setting [26]; 84.8% under setting [27]; 78.4% under setting [28]; 73.1% under setting [29]; 38.2% under setting [30]. In addition, the viability, T/C is 60% under setting [31]; 65.7% under setting [32]; 72.1% under setting [33]; 67.9% under setting [34]; 60.5% under setting [35]; 28.2% under setting [36]. Moreover, the viability, T/C runs as follows: under setting [37], 64.7%; under setting [38], 62.3%; under setting [39], 63.2%; under setting [40], 61.4%; under setting [41], 64.7%; under setting [42], 24.8%.
On to `CC(Cn1ccc(-c2ccc(C#N)c(Cl)c2)n1)NC(=O)c1cc(C(C)O)[nH]n1` (configuration not stated) + CC(Nc1ccc2c(c1)OCCn1cc(N3C(=O)OCC3C(F)F)nc1-2)C(N)=O, for which the negative-log IC50 (pIC50) was < 5.00 under setting [1]; < 5.00 under setting [2]; < 5.00 under setting [3]; < 5.00 under setting [4]; < 5.00 under setting [5]; < 5.00 under setting [6]. The viability, T/C runs as follows: under setting [7], 86.5%; under setting [8], 102%; under setting [9], 108%; under setting [10], 103%; under setting [11], 107%; under setting [12], 127%. For the same compound, the viability, T/C was 124% under setting [13]; 88.3% under setting [14]; 88.5% under setting [15]; 97.7% under setting [16]; 99.5% under setting [17]; 116% under setting [18]. For the same compound, the viability, T/C reads like this: under setting [19], 77.1%; under setting [20], 79.6%; under setting [21], 83.1%; under setting [22], 93.9%; under setting [23], 108%; under setting [24], 104%. Besides, the viability, T/C under setting [25] is 81.5%; the viability, T/C under setting [26] was 77.9%; the viability, T/C under setting [27] is 76.9%; the viability, T/C under setting [28] was 82.1%; the viability, T/C under setting [29] was 93.2%; the viability, T/C under setting [30] is 103%. Moreover, the viability, T/C reads like this: under setting [31], 76.7%; under setting [32], 91.1%; under setting [33], 103%; under setting [34], 69.4%; under setting [35], 83.4%; under setting [36], 95.9%. Also, the viability, T/C by setting is: under setting [37], 87.9%; under setting [38], 76%; under setting [39], 88.2%; under setting [40], 94%; under setting [41], 76.4%; under setting [42], 95.9%.
As to `Cn1nccc1Nc1nccc(-c2ccn(C(CO)c3ccc(Cl)c(F)c3)c(=O)c2)n1` (configuration not stated), the viability, T/C (compound 0.0316 µM) is 88.9% [middle of 4 runs]; the viability, T/C (compound 0.316 µM) was 72.8% [middle of 4 runs]; the viability, T/C (compound 1 µM) was 94% [middle of 4 runs]; the viability, T/C (compound 3.16 µM) is 91.2% [middle of 4 runs]. Besides, under “curve of compound”, the pIC50 was < 5.00.
In the case of `C[C@@H](NC(=O)c1ncnc(N)c1Cl)c1ncc(C(=O)Nc2cc(C(F)(F)F)c(Cl)cn2)s1`, the viability, T/C runs as follows: (compound 1 µM) 81.6% [middle of 4 runs]; (compound 3.16 µM) 68% [middle of 4 runs]. Further, the pIC50 (curve of compound) is < 5.00.
